Experiments:
[1] = tested on: Staphylococcus aureus 315; test: agar diffusion test (Test System II, multi-resistant germs); type: cell-based; set-up: key: r = resistant (no detectable zone of inhibition)
Procedure, shortened: (§1)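 Compounds, dissolved in methanol or distilled water, were loaded onto paper discs at 10, 50 and 100 μg and placed three per plate on Müller-Hinton agar II spread with a McFarland 0.5 saline suspension. After 18-20 h at 37 °C, inhibition zone diameters were measured.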

[2] = tested on: Enterococcus faecalis 769; test: as above; type: cell-based; set-up: key: r = resistant (no detectable zone of inhibition)
Procedure, shortened: as §1

[3] = tested on: S. epidermidis 125; test: as above; type: cell-based, Staphylococcus epidermidis
Procedure, shortened: as §1

[4] = tested on: S. epidermidis 563; test: as above; type: cell-based, Staphylococcus epidermidis; set-up: key: r = resistant (no detectable zone of inhibition)
Procedure, shortened: as §1

[5] = tested on: S. epidermidis 847; test: as above; type: cell-based, Staphylococcus epidermidis; set-up: key: r = resistant (no detectable zone of inhibition)
Procedure, shortened: as §1

[6] = tested on: S. epidermidis 1071; test: as above; type: cell-based, Staphylococcus epidermidis; set-up: key: r = resistant (no detectable zone of inhibition)
Procedure, shortened: as §1

[7] = tested on: S. epidermidis 1068; test: as above; type: cell-based, Staphylococcus epidermidis; set-up: key: r = resistant (no detectable zone of inhibition)
Procedure, shortened: as §1

[8] = tested on: S. aureus 38418; test: as above; type: cell-based, Staphylococcus aureus
Procedure, shortened: as §1

[9] = tested on: S. aureus 526; test: as above; type: cell-based, Staphylococcus aureus; set-up: key: r = resistant (no detectable zone of inhibition)
Procedure, shortened: as §1

[10] = tested on: S. aureus 39105; test: as above; type: cell-based, Staphylococcus aureus; set-up: key: r = resistant (no detectable zone of inhibition)
Procedure, shortened: as §1

[11] = tested on: S. aureus 520; test: as above; type: cell-based, Staphylococcus aureus; set-up: key: r = resistant (no detectable zone of inhibition)
Procedure, shortened: as §1

[12] = tested on: S. aureus 33490; test: as above; type: cell-based, Staphylococcus aureus; set-up: key: r = resistant (no detectable zone of inhibition)
Procedure, shortened: as §1

[13] = tested on: S. aureus North Germany strain; test: as above; type: cell-based, Staphylococcus aureus; set-up: key: r = resistant (no detectable zone of inhibition)
Procedure, shortened: as §1

[14] = tested on: S. aureus 34289; test: as above; type: cell-based, Staphylococcus aureus; set-up: key: r = resistant (no detectable zone of inhibition)
Procedure, shortened: as §1

[15] = tested on: S. aureus 36881; test: as above; type: cell-based, Staphylococcus aureus; set-up: key: r = resistant (no detectable zone of inhibition)
Procedure, shortened: as §1

[16] = tested on: Escherichia coli SBUG 1135; test: agar diffusion test (Test System 1, antimicrobial effect); type: cell-based; set-up: key: r = resistant (no detectable zone of inhibition)
Procedure, shortened: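 Disc diffusion: compound at 10 μg, 50 μg, 100 μg on sensi-discs, three per plate of nutrient agar seeded with ~10^6 E. coli SBUG 1135 (overnight culture, 17 h, 37° C, diluted 1:100). After 20 h incubation at 37° C, zone diameter recorded in mm.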

[17] = tested on: Bacillus megaterium SBUG 1152; test: as above; type: cell-based
Procedure, shortened: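 Paper discs loaded with 10 μg, 50 μg or 100 μg of test substance (methanol or water solution) placed on nutrient agar seeded with 10^6 cells of a 17-h B. megaterium culture. After 20 h at 37° C., zone of inhibition measured as diameter in mm.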

[18] = tested on: B. subtilis AWD 166; test: agar diffusion test (antimicrobial effect); type: cell-based, Bacillus subtilis
Procedure, shortened: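 Inhibition zone diameters (mm) read after 20 h incubation at 37 °C. Discs carried 10 μg, 50 μg or 100 μg of test substance, dissolved in methanol or distilled water, on agar inoculated with B. subtilis AWD 166 for dense but separate colonies.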

SMILES: CC1=C(C(=O)O)N2C(=O)C(NC(=O)C(NC3=C(C(N)=O)C(=O)C=CC3=O)c3ccccc3)C2SC1 (stereo not drawn) [1f, 7-[2-(2-carbamoyl-3,6-dioxocyclohexa-1,4-dienylamino)-2-phenyl-acetylamino]-desacetoxycephalosporanic acid]
- Diameter of zone of inhibition ([1]; Quantity n 0.02): r
- Diameter of zone of inhibition ([1]; Quantity n 0.1): r
- Diameter of zone of inhibition ([1]; Quantity n 0.2): 10 mm
- Diameter of zone of inhibition ([2]; Quantity n 0.02): r
- Diameter of zone of inhibition ([2]; Quantity n 0.1): r
- Diameter of zone of inhibition ([2]; Quantity n 0.2): r
- Diameter of zone of inhibition ([3]; Quantity n 0.02): 10 mm
- Diameter of zone of inhibition ([3]; Quantity n 0.1): 22 mm
- Diameter of zone of inhibition ([3]; Quantity n 0.2): 28 mm
- Diameter of zone of inhibition ([4]; Quantity n 0.02): r
- Diameter of zone of inhibition ([4]; Quantity n 0.1): 18 mm
- Diameter of zone of inhibition ([4]; Quantity n 0.2): 24 mm
- Diameter of zone of inhibition ([5]; Quantity n [mol] 0.02): r
- Diameter of zone of inhibition ([5]; Quantity n [mol] 0.1): 16 mm
- Diameter of zone of inhibition ([5]; Quantity n [mol] 0.2): 20 mm
- Diameter of zone of inhibition ([6]; Quantity n 0.02): 8 mm
- Diameter of zone of inhibition ([6]; Quantity n 0.1): 16 mm
- Diameter of zone of inhibition ([6]; Quantity n 0.2): 18 mm
- Diameter of zone of inhibition ([7]; Quantity n 0.02): r
- Diameter of zone of inhibition ([7]; Quantity n 0.1): 12 mm
- Diameter of zone of inhibition ([7]; Quantity n 0.2): 16 mm
- Diameter of zone of inhibition ([8]; Quantity n [mol] 0.02): 14 mm
- Diameter of zone of inhibition ([8]; Quantity n [mol] 0.1): 24 mm
- Diameter of zone of inhibition ([8]; Quantity n [mol] 0.2): 30 mm
- Diameter of zone of inhibition ([9]; Quantity n 0.02): r
- Diameter of zone of inhibition ([9]; Quantity n 0.1): r
- Diameter of zone of inhibition ([9]; Quantity n 0.2): r
- Diameter of zone of inhibition ([10]; Quantity n 0.02): r
- Diameter of zone of inhibition ([10]; Quantity n 0.1): r
- Diameter of zone of inhibition ([10]; Quantity n 0.2): 12 mm
- Diameter of zone of inhibition ([11]; Quantity n [mol] 0.02): r
- Diameter of zone of inhibition ([11]; Quantity n [mol] 0.1): r
- Diameter of zone of inhibition ([11]; Quantity n [mol] 0.2): r
- Diameter of zone of inhibition ([12]; Quantity n [μmol] 0.02): r
- Diameter of zone of inhibition ([12]; Quantity n [μmol] 0.1): 14 mm
- Diameter of zone of inhibition ([12]; Quantity n [μmol] 0.2): 16 mm
- Diameter of zone of inhibition ([13]; Quantity n 0.02): r
- Diameter of zone of inhibition ([13]; Quantity n 0.1): r
- Diameter of zone of inhibition ([13]; Quantity n 0.2): 10 mm
- Diameter of zone of inhibition ([14]; Quantity n [mol] 0.02): r
- Diameter of zone of inhibition ([14]; Quantity n [mol] 0.1): r
- Diameter of zone of inhibition ([14]; Quantity n [mol] 0.2): r
- Diameter of zone of inhibition ([15]; Quantity n 0.02): r
- Diameter of zone of inhibition ([15]; Quantity n 0.1): r
- Diameter of zone of inhibition ([15]; Quantity n 0.2): 14 mm
- Diameter of zone of inhibition ([16]; Quantity n 0.02): r
- Diameter of zone of inhibition ([16]; Quantity n 0.1): 14 mm
- Diameter of zone of inhibition ([16]; Quantity n 0.2): 18 mm
- Diameter of zone of inhibition ([17]; Quantity n 0.02): 20 mm
- Diameter of zone of inhibition ([17]; Quantity n 0.1): 30 mm
- Diameter of zone of inhibition ([17]; Quantity n 0.2): 32 mm
- Diameter of zone of inhibition ([18]; Quantity n 0.02): 24 mm
- Diameter of zone of inhibition ([18]; Quantity n 0.1): 30 mm
- Diameter of zone of inhibition ([18]; Quantity n 0.2): 32 mm

From US20110040086A1, “Novel Beta-Lactam Antibiotics, Methods for Their Production, and Their Use” (DRITTE PATENTPORTFOLIO BETEILIGUNGSGESELLSCHAFT MB, priority 2007, published 2011)
